Reference: US20100144819A1, “Synergistic Methods for Control of Pests” (FMC A[…]. LTD., priority 2008, published 2010)

How the values were obtained:
[1] = tested on: German cockroach (Blatella germanica); assay: German cockroach mortality on treated filter paper; type: in vivo, Blattella germanica; conditions: 24 h
Source text: (§1) The presence of a synergistic effect between the two active ingredients is established with the aid of the Colby equation (see Colby, S. R., “Calculating Synergistic and Antagonistic Responses of Herbicide Combinations”, Weeds 1967, 15, pg 20-22): E=X+Y−(XY/100).
(§2) Using the method of Colby, the presence of asynergistic interaction between two active ingredients is established by first calculating the expected activity, ‘E’, of the mixture based on activities of the two components applied alone. If ‘E’ is lower than the observed activity, synergy is present. In the equation above, ‘X’ is the percentage control observed when bifenthrin applied alone at rate ‘x’. The ‘Y’ term is percentage control observed when fipronil applied alone at rate ‘y’. The equation calculates ‘E’, the expected activity of the mixture of ‘X’ at rate ‘x’ with ‘Y’ at rate ‘y’ if their effects are strictly additive and no interaction has occurred.
The compositions of the present invention were tested for German cockroach (Blatella germanica) activity in the following manner.
Test solutions were made by dissolving technical grade bifenthrin and fipronil in acetone to provide appropriate rates of application of bifenthrin and fipronil alone, as well as combinations of bifenthrin and fipronil. The active ingredient concentrations tested were from 50 parts per million (0.05 mg of active ingredient/mL or 0.05 g/L) to 500 parts per million (0.5 mg of active ingredient/mL or 0.5 g/L), four replicates per rate. In a fume cabinet, one milliliter of a test solution was applied to a 9 cm Whatman® 2 qualitative filter paper using a calibrated pipette. The application started at the center of the filter paper with individual drops being applied in an outward circular motion so that the entire filter paper was uniformly treated. Acetone only (one mL) was applied in the same manner to provide an untreated control (UTC). The treated filter papers were allowed to dry for two hours. The dried, treated or untreated filter paper was placed into a plastic Petri dish and ten late instar, healthy and active German cockroaches (Blattella germanica) were momentarily immobilized using carbon dioxide and then placed onto the filter paper. The lid of each Petri dish was put on to contain the cockroaches. The Petri dishes were maintained at a temperature of 25° C. to 30° C. at ambient relative humidity out of direct sunlight. German cockroach mortality was assessed after 24 hours by counting the number of alive and the number of knocked down/dead cockroaches.
(§3) In order to compare the pesticidal effectiveness of the individual and combination treatments the LC 50 and LC 90 values (lethal concentration in ppm that would effectively knock down/kill 50% or 90% of the test pests) were calculated. In calculating the LC values for the various mixtures of bifenthrin and fipronil, probit analysis was conducted on the fipronil concentration of the mixture. […] The values calculated from the data of Table 1 are in Table 1A below.

[2] = tested on: American cockroach (Periplaneta americana); assay: American cockroach mortality on treated filter paper; type: in vivo; conditions: 24 h
Source text: as §1, §2
The compositions of the present invention were tested for American cockroach (Periplaneta americana) activity in the following manner:
Test solutions were made by dissolving technical grade bifenthrin and fipronil in acetone to provide appropriate rates of application of bifenthrin and fipronil alone, as well as combinations of bifenthrin and fipronil. The active ingredient concentrations tested were from 10 part per million (0.01 mg of active ingredient/mL or 0.01 g/L) to 1000 parts per million (1.0 mg of active ingredient/mL or 1.0 g/L), four replicates per rate. In a fume cabinet, one milliliter of a test solution was applied to a 9 cm Whatman® 2 qualitative filter paper using a calibrated pipette. The application started at the center of the filter paper with individual drops being applied in an outward circular motion so that the entire filter paper was uniformly treated. Acetone only (one mL) was applied in the same manner to provide an untreated control (UTC). The treated filter papers were allowed to dry for two hours. The dried, treated or untreated filter paper was placed into a plastic cup having a base diameter of 90 mm, in which the upper portion of the walls of the plastic cup were coated with a fluoropolymer resin (PFTE-30) insect barrier (Fluoron® available from BioQuip Products Inc.) to prevent the insects from climbing out of the container. Ten late instar, healthy and active American cockroaches (Periplaneta americana) were momentarily immobilized using carbon dioxide and then placed onto the filter paper. The top of the plastic containers were covered with gauze to contain the cockroaches. The plastic containers were maintained at a temperature of 25° C. to 30° C. at ambient relative humidity out of direct sunlight. American cockroach mortality was assessed after 24 hours by counting the number of alive and the number of knocked down/dead cockroaches.
as §3, with “the bifenthrin in” for “the fipronil”, “Table 2” for “Table 1”, “Table 2A” for “Table 1A”

[3] = tested on: black house spider (Badumna insignis); assay: Black house spider mortality on treated pine plywood; type: in vivo; conditions: suspension concentrate diluted in water, 24 h
Source text: as §1, §2
The compositions of the present invention were tested for black house spider (Badumna insignis) activity in the following manner:
Formulations of the test compounds were made as follows: • 1).
The testing was conducted on pine plywood surfaces that had dimensions of 20 cm×20 cm. The above formulations were diluted in water to achieve the desired concentration rate in grams of active ingredient per liter prior to application to the pine plywood. Each treatment was applied using an airbrush sprayer and compressed air as the propellant. The equipment was calibrated prior to use and the treatments were applied to the pine plywood surfaces at a rate of 1 L/10 m^2 (4 mL of final test solution per 20 cm×20 cm pine plywood surface)'. For example, in order to obtain a application rate of […] of active ingredient per 10 m^2, 1.25 mL of the fipronil formulation 1) which contained 100 gram per liter suspension concentrate formulation of fipronil, was diluted in 1 liter of water to make a final test solution. Four mL of the final test solution was sprayed onto the pine plywood surface. The treated pine plywood was allowed to air dry at ambient temperature by storing horizontally away from direct sunlight. Three black house spiders, medium to large in size collected from the field 1 to 2 days prior to testing, were placed separately under untreated portion cups (7 cm diameter by 7 cm deep) on the treated pine plywood surfaces. The untreated portion cups provided an opportunity for the spiders to seek an untreated area. The spiders were assessed after 24 hours exposure by counting the number of alive and the number of knocked down/dead spiders. There were three replications of each treatment.

[4] = probit analysis of Table 1 data, mixtures as bifenthrin:fipronil
[5] = probit analysis of Table 2 data, mixtures as bifenthrin:fipronil

Compound: N#Cc1nn(-c2c(Cl)cc(C(F)(F)F)cc2Cl)c(N)c1[S+]([O-])C(F)(F)F [Fipronil, (5-amino-[2,6-dichloro-4(trifluoromethyl)phenyl]-4-[(1R,S)-(trifluoromethyl)sulfinyl]-1H-pyrazole-3-carbonitrile]
- % Observed Control ([1]; 50 ppm (0.05 mg/mL)): 22.5%
- Mortality Rep 1 dead/alive ([1]; 50 ppm (0.05 mg/mL)): 7/3
- Mortality Rep 2 dead/alive ([1]; 50 ppm (0.05 mg/mL)): 1/9
- Mortality Rep 3 dead/alive ([1]; 50 ppm (0.05 mg/mL)): 0/10
- Mortality Rep 4 dead/alive ([1]; 50 ppm (0.05 mg/mL)): 1/9
- % Observed Control ([1]; 100 ppm (0.1 mg/mL)): 42.5%
- Mortality Rep 1 dead/alive ([1]; 100 ppm (0.1 mg/mL)): 6/4
- Mortality Rep 2 dead/alive ([1]; 100 ppm (0.1 mg/mL)): 3/7
- Mortality Rep 3 dead/alive ([1]; 100 ppm (0.1 mg/mL)): 4/6
- Mortality Rep 4 dead/alive ([1]; 100 ppm (0.1 mg/mL)): 4/6
- % Observed Control ([1]; 250 ppm (0.25 mg/mL)): 100%
- Mortality Rep 1 dead/alive ([1]; 250 ppm (0.25 mg/mL)): 10/0
- Mortality Rep 2 dead/alive ([1]; 250 ppm (0.25 mg/mL)): 10/0
- Mortality Rep 3 dead/alive ([1]; 250 ppm (0.25 mg/mL)): 10/0
- Mortality Rep 4 dead/alive ([1]; 250 ppm (0.25 mg/mL)): 10/0
- % Observed Control ([1]; 500 ppm (0.5 mg/mL)): 100%
- Mortality Rep 1 dead/alive ([1]; 500 ppm (0.5 mg/mL)): 10/0
- Mortality Rep 2 dead/alive ([1]; 500 ppm (0.5 mg/mL)): 10/0
- Mortality Rep 3 dead/alive ([1]; 500 ppm (0.5 mg/mL)): 10/0
- Mortality Rep 4 dead/alive ([1]; 500 ppm (0.5 mg/mL)): 10/0
- LC 50 [1, 4]: 102 ppm
- LC 90 [1, 4]: 179 ppm
- % Observed Control ([2]; 10 ppm (0.01 mg/mL)): 0%
- Mortality Rep 1 dead/alive ([2]; 10 ppm (0.01 mg/mL)): 0/10
- Mortality Rep 2 dead/alive ([2]; 10 ppm (0.01 mg/mL)): 0/10
- Mortality Rep 3 dead/alive ([2]; 10 ppm (0.01 mg/mL)): 0/10
- Mortality Rep 4 dead/alive ([2]; 10 ppm (0.01 mg/mL)): 0/10
- % Observed Control ([2]; 20 ppm (0.02 mg/mL)): 0%
- Mortality Rep 1 dead/alive ([2]; 20 ppm (0.02 mg/mL)): 0/10
- Mortality Rep 2 dead/alive ([2]; 20 ppm (0.02 mg/mL)): 0/10
- Mortality Rep 3 dead/alive ([2]; 20 ppm (0.02 mg/mL)): 0/10
- Mortality Rep 4 dead/alive ([2]; 20 ppm (0.02 mg/mL)): 0/10
- % Observed Control ([2]; 25 ppm (0.025 mg/mL)): 0%
- Mortality Rep 1 dead/alive ([2]; 25 ppm (0.025 mg/mL)): 0/10
- Mortality Rep 2 dead/alive ([2]; 25 ppm (0.025 mg/mL)): 0/10
- Mortality Rep 3 dead/alive ([2]; 25 ppm (0.025 mg/mL)): 0/10
- Mortality Rep 4 dead/alive ([2]; 25 ppm (0.025 mg/mL)): 0/10
- % Observed Control ([2]; 50 ppm (0.05 mg/mL)): 0%
- Mortality Rep 1 dead/alive ([2]; 50 ppm (0.05 mg/mL)): 0/10
- Mortality Rep 2 dead/alive ([2]; 50 ppm (0.05 mg/mL)): 0/10
- Mortality Rep 3 dead/alive ([2]; 50 ppm (0.05 mg/mL)): 0/10
- Mortality Rep 4 dead/alive ([2]; 50 ppm (0.05 mg/mL)): 0/10
- % Observed Control ([2]; 100 ppm (0.1 mg/mL)): 2.5%
- Mortality Rep 1 dead/alive ([2]; 100 ppm (0.1 mg/mL)): 0/10
- Mortality Rep 2 dead/alive ([2]; 100 ppm (0.1 mg/mL)): 0/10
- Mortality Rep 3 dead/alive ([2]; 100 ppm (0.1 mg/mL)): 0/10
- Mortality Rep 4 dead/alive ([2]; 100 ppm (0.1 mg/mL)): 1/9
- % Observed Control ([2]; 125 ppm (0.125 mg/mL)): 2.5%
- Mortality Rep 1 dead/alive ([2]; 125 ppm (0.125 mg/mL)): 0/10
- Mortality Rep 2 dead/alive ([2]; 125 ppm (0.125 mg/mL)): 0/10
- Mortality Rep 3 dead/alive ([2]; 125 ppm (0.125 mg/mL)): 0/10
- Mortality Rep 4 dead/alive ([2]; 125 ppm (0.125 mg/mL)): 1/9
- % Observed Control ([2]; 200 ppm (0.2 mg/mL)): 2.5%
- Mortality Rep 1 dead/alive ([2]; 200 ppm (0.2 mg/mL)): 0/10
- Mortality Rep 2 dead/alive ([2]; 200 ppm (0.2 mg/mL)): 0/10
- Mortality Rep 3 dead/alive ([2]; 200 ppm (0.2 mg/mL)): 1/9
- Mortality Rep 4 dead/alive ([2]; 200 ppm (0.2 mg/mL)): 0/10
- % Observed Control ([2]; 250 ppm (0.25 mg/mL)): 45%
- Mortality Rep 1 dead/alive ([2]; 250 ppm (0.25 mg/mL)): 0/10
- Mortality Rep 2 dead/alive ([2]; 250 ppm (0.25 mg/mL)): 8/2
- Mortality Rep 3 dead/alive ([2]; 250 ppm (0.25 mg/mL)): 7/3
- Mortality Rep 4 dead/alive ([2]; 250 ppm (0.25 mg/mL)): 3/7
- % Observed Control ([2]; 500 ppm (0.5 mg/mL)): 45%
- Mortality Rep 1 dead/alive ([2]; 500 ppm (0.5 mg/mL)): 1/9
- Mortality Rep 2 dead/alive ([2]; 500 ppm (0.5 mg/mL)): 8/2
- Mortality Rep 3 dead/alive ([2]; 500 ppm (0.5 mg/mL)): 5/5
- Mortality Rep 4 dead/alive ([2]; 500 ppm (0.5 mg/mL)): 4/6
- LC 50 [2, 5]: 1013 ppm
- LC 90 [2, 5]: 1742 ppm
- Observed % Control ([3]; 0.125 g ai/L at 1 L/10 m^2): 0.0%
- Observed % Control ([3]; 0.25 g ai/L at 1 L/10 m^2): 0.0%
- Observed % Control ([3]; 0.5 g ai/L at 1 L/10 m^2): 0.0%
